Holding throughout (type): cell-based, human
One series has as its system HBB. Briefly: RT-qPCR activation of endogenous HBB gene promoter in HEK293 cells. The following applies: single crRNA. The protocol: (§1) FIGS. 1A-1E. Targeted human endogenous gene regulation using individual crRNAs with dLbCpf1-based activators • (A) Schematic showing direct dLbCpf1-VPR and dLbCpf-p65 activator fusion proteins. • (B) Activities of dLbCpf1-p65 or dLbCpf1-VPR using single crRNAs at three endogenous human genes (HBB, AR, and NPY1R) in human HEK293 cells. Relative activation of the indicated gene promoters was measured by RT-qPCR. Three separate individual crRNAs were targeted within promoter sequence 1 kb upstream of the transcription start site for each gene. Relative mRNA expression is calculated by comparison to the control sample in which no crRNA is expressed. (C) Analysis of various crRNAs targeted to the human CD5 and CD22 promoters. 32 crRNAs (16 for each gene) were designed to target sites located within promoter sequences 1 kb upstream or 500 bps downstream of the TSS of each gene. Repetitive sequences were not targeted. After 72 hours post-transfection, cells were stained with fluorescently labeled antibody for CD5 or CD22 protein and fluorescent-positive cells were quantified by flow cytometry. Error bars represent s.e.m. for three biological replicates. […] (D) Schematic illustrating drug-inducible bi-partite dLbCpf1-based activator fusion proteins. dLbCpf1 is fused to one to four DmrA domains and VPR or p65 is fused to a DmrC domain. Because DmrA and DmrC interact only in the presence of an A/C-heterodimerizer drug (red diamond), the bi-partite activator is only reconstituted in the presence of the drug. (E) Activities of drug-inducible bi-partite dLbCpf1-based activators using single crRNAs at three endogenous human genes (HBB, AR, and NPY1R) in human HEK293 cells. Relative activation of the indicated gene promoters was measured by RT-qPCR. […] Data shown in (B) and (E) represent three biological independent replicates and error bars indicate standard deviation (SD) of three technical replicates.
(§2) (A) Schematic of an expression cassette designed to express multiple gRNAs encoded on a single transcript. The arrows indicate cleavage sites being processed by the RNase activity of dLbCpf1. (B) Schematic illustrating multiplex expression of three crRNAs each targeted to a different endogenous gene promoter in a single cell. (C) Simultaneous activation of three endogenous human genes using crRNAs expressed from a multiplex transcript or from individual transcripts with dLbCpf1-VPR direct fusions (left panel), dLbCpf1-DmrA(×4) and DmrC-VPR fusions (middle panel), and dLbCpf1-DmrA(×4) and DmrC-p65 fusions (right panel). Transcripts were measured in HEK293 cells using RT-qPCR with relative mRNA expression calculated by comparison to the control sample in which no crRNA is expressed. (D) Activities of MST crRNA with different dLbCpf1-based activators in human U20S cells. Graphs showing activation of three endogenous human genes with dLbCpf1-VPR direct fusions, dLbCpf1-DmrA(×4) and DmrC-p65 fusions, and dLbCpf1-DmrA(×4) and DmrC-VPR fusions and crRNAs expressed from a multiplex single transcript (MST) or from transcripts encoding a single crRNA. RNA expression was measured by RT-qPCR and relative expression shown was calculated by comparison to a control sample in which no crRNA is expressed. (E) Schematic illustrating multiplex expression of three crRNAs each targeted to the same endogenous gene promoter in the same cell. (F) Activities of direct dLbCpf1-p65 or dLbCpf1-VPR fusions with sets of three crRNAs expressed from a multiplex transcript or from individual transcripts on the HBB, AR, or NPY1R endogenous gene promoters. Transcripts were measured in HEK293 cells using RT-qPCR with relative mRNA expression calculated by comparison to the control sample in which no crRNA is expressed. (G) Activities of dLbCpf1-DmrA(×4) and DmrC-VPR fusions or with dLbCpf1-DmrA(×4) and DmrC-p65 fusions with sets of three crRNAs expressed from a multiplex transcript or from individual transcripts on the HBB, AR, or NPY1R endogenous gene promoters. […]

The subject of another series is NPY1R. Put plainly: RT-qPCR activation of endogenous NPY1R gene promoter in HEK293 cells. The following applies: single crRNA. As for the experimental part:
as §1, §2

A further series deals with AR. Briefly: RT-qPCR activation of endogenous AR gene promoter in HEK293 cells. As to conditions: bi-partite, with dLbCpf1 fusions harboring two, three or four DmrA domains, single crRNA. The protocol: as §1
(A) Schematic of an expression cassette designed to express multiple gRNAs encoded on a single transcript. The arrows indicate cleavage sites being processed by the RNase activity of dLbCpf1. (B) Schematic illustrating multiplex expression of three crRNAs each targeted to a different endogenous gene promoter in a single cell. […] Transcripts were measured in HEK293 cells using RT-qPCR with relative mRNA expression calculated by comparison to the control sample in which no crRNA is expressed. […] RNA expression was measured by RT-qPCR and relative expression shown was calculated by comparison to a control sample in which no crRNA is expressed. […] Transcripts were measured in HEK293 cells using RT-qPCR with relative mRNA expression calculated by comparison to the control sample in which no crRNA is expressed. […]

Another series concerns HBB, AR, and NPY1R. Briefly: Simultaneous (multiplex) activation of three endogenous genes in HEK293 cells, RT-qPCR. As to conditions: multiplex transcript vs single crRNA, HEK293, across the dLbCpf1-based activators. From the text: (A) Schematic of an expression cassette designed to express multiple gRNAs encoded on a single transcript. The arrows indicate cleavage sites being processed by the RNase activity of dLbCpf1. (B) Schematic illustrating multiplex expression of three crRNAs each targeted to a different endogenous gene promoter in a single cell. (C) Simultaneous activation of three endogenous human genes using crRNAs expressed from a multiplex transcript or from individual transcripts with dLbCpf1-VPR direct fusions (left panel), dLbCpf1-DmrA(×4) and DmrC-VPR fusions (middle panel), and dLbCpf1-DmrA(×4) and DmrC-p65 fusions (right panel). Transcripts were measured in HEK293 cells using RT-qPCR with relative mRNA expression calculated by comparison to the control sample in which no crRNA is expressed. […] RNA expression was measured by RT-qPCR and relative expression shown was calculated by comparison to a control sample in which no crRNA is expressed. […] Transcripts were measured in HEK293 cells using RT-qPCR with relative mRNA expression calculated by comparison to the control sample in which no crRNA is expressed. […] Transcripts were measured in HEK293 cells using RT-qPCR with relative mRNA expression calculated by comparison to the control sample in which no crRNA is expressed. […] Cells were collected at various time points and relative mRNA expression levels were measured by RT-qPCR compared to a negative control. […]

The mark [1] stands for this setting: bi-partite with dLbCpf1-DmrA fusions.
Where [2] appears, read: bi-partite, with dLbCpf1 fusions harboring two, three or four DmrA domains.

On to “DmrC-VPR: CAG-DmrC-NLS-FLAG-VPR; DmrC dimerization domain fused to VPR activator (SEQ ID NO: 49)”, for which the “dependence of maximal activation on A/C heterodimerizer drug” value with HBB (setting [1]) and in the series on NPY1R (setting [1]) was “dependent on the presence of the A/C heterodimerizer drug” throughout. Further, the “maximum level of activation relative to direct dLbCpf1-VPR fusions” value in the series with HBB (setting [1]) and with NPY1R (setting [1]) was “approximately half” in each case. In addition, the activation of transcription result is “activation” in the series with HBB (setting [2]), “activation” with NPY1R (setting [2]) and “lack of an effect” in the series on AR.

B1: multiplex crRNAs: three LbCpf1 crRNAs (HBB, AR, NPY1R) encoded on a single U6-driven transcript (SEQ ID NO: 58) (nucleic acid)
guide: GAGGGCCTATTTCCCATGATTCCTTCATATTTGCATATACGATACAAGGCTGTTAGAGAGATAATTAGAATTAATTTGACTGTAAACACAAAGATATTAGTACAAAATACGTGACGTAGAAAGTAATAATTTCTTGGGTAGTTTGCAGTTTTAAAATTATGTTTTAAAATGGACTATCATATGCTTACCGTAACTTGAAAGTATTTCGATTTCTTGGCTTTATATATCTTGTGGAAAGGACGAAACACCGAATTTCTACTAAGTGTAGATTACTGATGGTATGGGGCCAAAATTTCTACTAAGTGTAGATCTCTAGGAACCCTCAGCCCCAATTTCTACTAAGTGTAGATAAGCCTCGGGAAACTGCCCTAATTTCTACTAAGTGTAGATTTTTTTT
modifications: misc_feature 1..397 crRNAs from Figure 2b
As to B1, the “magnitude of activation somewhat lower than with expression of a single crRNA” value in the series on HBB, AR, and NPY1R is given as 18 to 55%.

The values are drawn from patent publication US12202861B2, “Inducible, tunable, and multiplex human gene regulation using CRISPR-Cpf1” (The General Hospital Corporation, priority 2017, dated 2025).
